Experimental data published in patent US11572590B2, “Methods for evaluating tumor cell spheroids using 3D microfluidic cell culture device” (Dana-Farber Cancer Institute, Inc., priority 2017, dated 2023).
Read-outs that look alike come from different tables or passages of the source.

Columns and labels:
Assay in all cases: SelectScreen Kinase Profiling, single point inhibition and IC50 for off-target kinases
Type in all cases: biochemical
off-target kinases [1] = target: off-target kinases (Homo sapiens, UniProt P34947); settings: GRK5, ZLYTE, ATP Km app
off-target kinases [2] = target: T1, off-target kinases (Homo sapiens, UniProt Q9H093); settings: NUAK2, LanthaScreen Binding
T1 sequence (Q9H093 1-628): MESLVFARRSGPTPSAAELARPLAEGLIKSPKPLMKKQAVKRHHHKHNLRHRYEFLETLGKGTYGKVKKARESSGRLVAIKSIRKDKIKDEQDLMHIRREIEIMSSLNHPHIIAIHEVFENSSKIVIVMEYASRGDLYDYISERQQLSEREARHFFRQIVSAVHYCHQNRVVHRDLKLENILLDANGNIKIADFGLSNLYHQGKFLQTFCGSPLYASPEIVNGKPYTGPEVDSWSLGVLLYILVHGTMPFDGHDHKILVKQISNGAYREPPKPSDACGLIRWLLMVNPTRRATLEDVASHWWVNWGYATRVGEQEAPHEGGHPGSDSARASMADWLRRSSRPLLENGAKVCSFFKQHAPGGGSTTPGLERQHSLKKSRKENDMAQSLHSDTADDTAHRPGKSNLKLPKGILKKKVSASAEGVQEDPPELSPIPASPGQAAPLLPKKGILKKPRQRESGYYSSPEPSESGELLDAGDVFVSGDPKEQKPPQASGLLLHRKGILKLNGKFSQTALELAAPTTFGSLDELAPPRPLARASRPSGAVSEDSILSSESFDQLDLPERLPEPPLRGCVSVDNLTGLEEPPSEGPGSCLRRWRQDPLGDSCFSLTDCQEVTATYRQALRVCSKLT

off-target kinases [3] = target: off-target kinases (Homo sapiens, UniProt Q15418); settings: RPS6KA1 (RSK1), ZLYTE, ATP Km app
off-target kinases [4] = target: off-target kinases (Homo sapiens, UniProt O75116); settings: ROCK2, ZLYTE, ATP Km app
off-target kinases [5] = target: off-target kinases (Homo sapiens, UniProt O00443); settings: PIK3C2A (PI3K-C2 alpha); Cmpd1 1000 μM; ATP Km app; Adapta
off-target kinases [6] = target: off-target kinases (Homo sapiens, UniProt P11362, V561M); settings: FGFR1 V561M, mutant y, LanthaScreen Binding
off-target kinases [7] = target: T2, off-target kinases (Homo sapiens, UniProt O14965); settings: AURKA (Aurora A), ATP Km app, ZLYTE
T2 sequence (O14965 1-403): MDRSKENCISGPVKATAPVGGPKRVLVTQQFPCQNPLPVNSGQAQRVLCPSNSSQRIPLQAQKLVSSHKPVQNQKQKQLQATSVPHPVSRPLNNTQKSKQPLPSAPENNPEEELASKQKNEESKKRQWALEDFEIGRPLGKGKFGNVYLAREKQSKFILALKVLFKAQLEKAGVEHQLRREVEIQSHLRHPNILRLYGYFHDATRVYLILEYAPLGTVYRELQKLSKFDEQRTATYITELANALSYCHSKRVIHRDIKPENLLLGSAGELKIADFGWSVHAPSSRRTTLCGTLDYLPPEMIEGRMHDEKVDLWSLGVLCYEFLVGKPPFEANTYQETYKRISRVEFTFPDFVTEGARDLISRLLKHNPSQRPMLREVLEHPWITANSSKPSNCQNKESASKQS

off-target kinases [8] = target: off-target kinases (Homo sapiens, UniProt P00533, T790M); settings: EGFR (ErbB1) T790M, mutant y, ZLYTE, ATP Km app
Sequence of off-target kinases (Homo sapiens, UniProt P00533, T790M) (P00533 25-1210 T790M): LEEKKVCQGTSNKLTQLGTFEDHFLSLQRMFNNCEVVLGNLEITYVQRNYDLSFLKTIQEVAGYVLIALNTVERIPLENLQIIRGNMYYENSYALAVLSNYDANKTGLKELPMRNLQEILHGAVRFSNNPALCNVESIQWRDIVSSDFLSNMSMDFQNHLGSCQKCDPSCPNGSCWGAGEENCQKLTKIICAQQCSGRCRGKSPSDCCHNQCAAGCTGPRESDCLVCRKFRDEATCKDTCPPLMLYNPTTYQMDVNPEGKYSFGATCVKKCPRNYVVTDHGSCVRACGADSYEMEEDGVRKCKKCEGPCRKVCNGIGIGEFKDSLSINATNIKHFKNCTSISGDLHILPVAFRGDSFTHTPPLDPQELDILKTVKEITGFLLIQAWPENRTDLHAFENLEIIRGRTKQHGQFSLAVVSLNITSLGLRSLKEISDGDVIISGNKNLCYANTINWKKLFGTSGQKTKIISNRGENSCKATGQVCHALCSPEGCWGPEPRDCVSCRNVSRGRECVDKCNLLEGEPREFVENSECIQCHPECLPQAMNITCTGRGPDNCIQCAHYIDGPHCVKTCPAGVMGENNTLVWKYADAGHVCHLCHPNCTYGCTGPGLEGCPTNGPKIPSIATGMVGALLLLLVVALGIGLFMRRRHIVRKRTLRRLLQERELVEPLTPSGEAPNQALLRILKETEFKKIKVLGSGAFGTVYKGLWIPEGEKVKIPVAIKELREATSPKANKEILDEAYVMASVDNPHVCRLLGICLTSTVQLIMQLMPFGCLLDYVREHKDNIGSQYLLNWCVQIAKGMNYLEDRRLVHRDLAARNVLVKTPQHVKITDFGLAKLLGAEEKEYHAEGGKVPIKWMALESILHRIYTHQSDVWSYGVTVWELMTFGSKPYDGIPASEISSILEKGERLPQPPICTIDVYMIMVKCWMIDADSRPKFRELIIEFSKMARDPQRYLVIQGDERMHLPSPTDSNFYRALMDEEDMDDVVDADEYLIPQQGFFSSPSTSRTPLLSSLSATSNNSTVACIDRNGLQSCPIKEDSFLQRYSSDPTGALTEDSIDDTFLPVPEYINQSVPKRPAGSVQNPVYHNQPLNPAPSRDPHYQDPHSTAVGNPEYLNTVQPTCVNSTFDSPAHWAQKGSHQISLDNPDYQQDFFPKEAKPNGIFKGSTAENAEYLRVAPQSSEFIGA

Sequence of off-target kinases (Homo sapiens, UniProt O75116) (O75116 whole entry): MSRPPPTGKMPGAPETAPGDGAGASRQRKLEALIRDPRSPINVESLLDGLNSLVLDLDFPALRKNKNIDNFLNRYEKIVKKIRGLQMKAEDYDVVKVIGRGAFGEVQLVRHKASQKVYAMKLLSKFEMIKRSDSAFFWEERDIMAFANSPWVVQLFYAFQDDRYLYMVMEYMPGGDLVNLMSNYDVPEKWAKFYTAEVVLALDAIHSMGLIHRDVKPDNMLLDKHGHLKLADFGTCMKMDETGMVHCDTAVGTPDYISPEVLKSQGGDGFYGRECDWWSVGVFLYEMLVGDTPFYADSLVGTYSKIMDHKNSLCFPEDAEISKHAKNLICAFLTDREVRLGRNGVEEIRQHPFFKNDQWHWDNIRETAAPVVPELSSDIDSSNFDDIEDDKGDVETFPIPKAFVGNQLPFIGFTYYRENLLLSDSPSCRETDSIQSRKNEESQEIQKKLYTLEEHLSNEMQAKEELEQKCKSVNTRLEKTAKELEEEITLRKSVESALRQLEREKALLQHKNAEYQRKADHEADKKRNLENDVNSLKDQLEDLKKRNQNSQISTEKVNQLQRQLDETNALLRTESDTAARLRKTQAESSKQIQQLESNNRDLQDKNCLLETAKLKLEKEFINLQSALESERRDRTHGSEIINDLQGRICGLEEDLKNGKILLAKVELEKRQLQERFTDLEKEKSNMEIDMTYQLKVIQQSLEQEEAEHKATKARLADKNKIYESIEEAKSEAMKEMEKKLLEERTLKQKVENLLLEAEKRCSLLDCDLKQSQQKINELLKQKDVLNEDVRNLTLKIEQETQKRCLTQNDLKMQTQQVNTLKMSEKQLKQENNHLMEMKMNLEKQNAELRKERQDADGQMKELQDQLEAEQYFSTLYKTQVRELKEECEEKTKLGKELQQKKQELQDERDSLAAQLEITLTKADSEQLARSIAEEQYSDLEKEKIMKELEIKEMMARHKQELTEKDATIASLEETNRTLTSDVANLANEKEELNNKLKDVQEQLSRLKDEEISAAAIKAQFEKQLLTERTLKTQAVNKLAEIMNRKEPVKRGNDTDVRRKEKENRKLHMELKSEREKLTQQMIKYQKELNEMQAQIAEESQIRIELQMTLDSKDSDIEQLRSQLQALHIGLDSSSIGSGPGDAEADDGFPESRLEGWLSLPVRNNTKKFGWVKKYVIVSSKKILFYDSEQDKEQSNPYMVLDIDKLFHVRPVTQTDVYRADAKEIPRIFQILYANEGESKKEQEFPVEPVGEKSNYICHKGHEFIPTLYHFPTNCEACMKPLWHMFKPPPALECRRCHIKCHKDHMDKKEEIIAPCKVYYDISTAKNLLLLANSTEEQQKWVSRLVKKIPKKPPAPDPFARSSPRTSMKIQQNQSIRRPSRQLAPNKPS
Sequence of off-target kinases (Homo sapiens, UniProt Q15418) (Q15418 whole entry): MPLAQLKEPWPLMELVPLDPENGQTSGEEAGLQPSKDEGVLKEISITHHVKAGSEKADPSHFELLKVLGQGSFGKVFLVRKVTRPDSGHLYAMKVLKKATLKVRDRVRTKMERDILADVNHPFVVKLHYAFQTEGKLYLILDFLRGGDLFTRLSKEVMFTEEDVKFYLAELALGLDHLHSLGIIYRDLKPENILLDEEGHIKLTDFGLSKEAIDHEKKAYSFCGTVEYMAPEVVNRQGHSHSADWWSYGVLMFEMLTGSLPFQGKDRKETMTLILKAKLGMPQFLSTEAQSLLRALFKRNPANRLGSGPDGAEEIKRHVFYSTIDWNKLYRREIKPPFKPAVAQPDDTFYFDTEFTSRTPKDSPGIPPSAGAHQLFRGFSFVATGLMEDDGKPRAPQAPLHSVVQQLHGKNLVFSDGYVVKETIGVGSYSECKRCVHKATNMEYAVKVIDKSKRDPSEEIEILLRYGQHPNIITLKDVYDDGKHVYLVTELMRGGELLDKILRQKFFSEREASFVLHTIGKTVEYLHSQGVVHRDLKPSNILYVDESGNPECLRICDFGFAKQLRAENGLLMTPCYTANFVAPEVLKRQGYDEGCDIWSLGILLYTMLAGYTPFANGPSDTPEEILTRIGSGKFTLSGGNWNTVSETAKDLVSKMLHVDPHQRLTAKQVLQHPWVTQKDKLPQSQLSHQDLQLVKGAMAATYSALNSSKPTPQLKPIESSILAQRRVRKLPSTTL
Sequence of off-target kinases (Homo sapiens, UniProt P11362, V561M) (P11362 22-822 V561M): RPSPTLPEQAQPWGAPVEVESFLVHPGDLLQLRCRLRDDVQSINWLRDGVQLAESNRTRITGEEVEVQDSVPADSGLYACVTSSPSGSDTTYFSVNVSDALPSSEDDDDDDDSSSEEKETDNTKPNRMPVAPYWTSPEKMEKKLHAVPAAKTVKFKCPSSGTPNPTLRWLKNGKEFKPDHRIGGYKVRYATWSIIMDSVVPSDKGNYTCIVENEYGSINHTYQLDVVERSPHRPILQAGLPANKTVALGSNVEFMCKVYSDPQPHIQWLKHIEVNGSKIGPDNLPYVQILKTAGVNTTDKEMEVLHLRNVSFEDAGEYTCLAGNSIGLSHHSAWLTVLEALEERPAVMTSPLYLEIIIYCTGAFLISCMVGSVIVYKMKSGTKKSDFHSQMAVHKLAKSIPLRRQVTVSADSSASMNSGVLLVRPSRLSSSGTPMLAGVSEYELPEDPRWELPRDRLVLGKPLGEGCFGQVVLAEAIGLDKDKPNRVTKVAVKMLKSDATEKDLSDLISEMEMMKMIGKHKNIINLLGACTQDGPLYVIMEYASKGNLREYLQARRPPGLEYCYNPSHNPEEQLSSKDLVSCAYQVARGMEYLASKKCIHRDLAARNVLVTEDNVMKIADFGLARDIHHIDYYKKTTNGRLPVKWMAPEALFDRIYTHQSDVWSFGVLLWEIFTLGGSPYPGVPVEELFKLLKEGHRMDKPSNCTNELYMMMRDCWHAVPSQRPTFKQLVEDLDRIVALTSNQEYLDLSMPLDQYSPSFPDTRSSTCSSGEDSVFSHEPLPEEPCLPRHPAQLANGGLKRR
Sequence of off-target kinases (Homo sapiens, UniProt P34947) (P34947 whole entry): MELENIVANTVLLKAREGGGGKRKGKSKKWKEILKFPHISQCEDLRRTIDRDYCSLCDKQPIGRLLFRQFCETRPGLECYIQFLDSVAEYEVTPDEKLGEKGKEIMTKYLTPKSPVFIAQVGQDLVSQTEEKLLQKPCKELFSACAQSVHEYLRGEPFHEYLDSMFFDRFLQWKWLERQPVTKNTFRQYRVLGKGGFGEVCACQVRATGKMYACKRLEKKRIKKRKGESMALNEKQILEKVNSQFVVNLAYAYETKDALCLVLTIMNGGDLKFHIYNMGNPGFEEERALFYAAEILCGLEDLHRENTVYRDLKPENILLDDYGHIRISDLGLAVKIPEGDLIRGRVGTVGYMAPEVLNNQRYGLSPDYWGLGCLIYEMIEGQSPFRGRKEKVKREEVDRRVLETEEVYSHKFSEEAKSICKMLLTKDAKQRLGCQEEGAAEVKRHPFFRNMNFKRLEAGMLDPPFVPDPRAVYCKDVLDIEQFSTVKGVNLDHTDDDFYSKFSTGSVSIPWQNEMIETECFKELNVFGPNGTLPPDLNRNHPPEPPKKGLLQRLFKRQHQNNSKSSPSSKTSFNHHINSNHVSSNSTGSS

Q: `N#Cc1cc(-c2ncnc(Nc3ccc(N4CCN(C5COC5)CC4)cc3)n2)ccc1OC1CCOCC1` [Compound 1, 5-(4-((4-(4-(oxetan-3-yl)piperazin-1-yl)phenyl)amino)-1,3,5-triazin-2-yl)-2-((tetrahydro-2H-pyran-4-yl)oxy)benzonitrile] was tested. Which inhibition (off-target kinases [1]; read-out: % Inhibition 1) did it give?
A: Its inhibition is 5%.

Q: What about the inhibition (off-target kinases [1]; read-out: % Inhibition 2) of the same compound?
A: The inhibition was -10%.

Q: What about the inhibition (off-target kinases [1]; read-out: % Inhibition Avg) of the same compound?
A: The inhibition was -3%.

Q: And the inhibition (off-target kinases [2]; read-out: % Inhibition 1)?
A: Its inhibition is 54%.

Q: What about the inhibition (off-target kinases [2]; read-out: % Inhibition 2) of the same compound?
A: The inhibition was 52%.

Q: What about the inhibition (off-target kinases [2]; read-out: % Inhibition Avg) of the same compound?
A: Its inhibition is 53%.

Q: What about the inhibition (off-target kinases [3]; read-out: % Inhibition 1) of the same compound?
A: The inhibition was 15%.

Q: And the inhibition (off-target kinases [3]; read-out: % Inhibition 2)?
A: The inhibition was 11%.

Q: What about the inhibition (off-target kinases [3]; read-out: % Inhibition Avg) of the same compound?
A: Its inhibition is 13%.

Q: And the inhibition (off-target kinases [4]; read-out: % Inhibition 1)?
A: The inhibition was 12%.

Q: And the inhibition (off-target kinases [4]; read-out: % Inhibition 2)?
A: The inhibition was 14%.

Q: What about the inhibition (off-target kinases [4]; read-out: % Inhibition Avg) of the same compound?
A: Its inhibition is 13%.

Q: What about the “% Inhibition 1” value (off-target kinases [5]) of the same compound?
A: The value was −7%.

Q: What about the “% Inhibition 2” value (off-target kinases [5]) of the same compound?
A: The value was −9%.

Q: And the “% Inhibition Avg” value (off-target kinases [5])?
A: Its value is −8%.

Q: What about the inhibition (off-target kinases [6]; read-out: % Inhibition 1) of the same compound?
A: Its inhibition is 20%.

Q: What about the inhibition (off-target kinases [6]; read-out: % Inhibition 2) of the same compound?
A: The inhibition was 25%.

Q: And the inhibition (off-target kinases [6]; read-out: % Inhibition Avg)?
A: The inhibition was 23%.

Q: What about the inhibition (off-target kinases [7]; read-out: % Inhibition 1) of the same compound?
A: Its inhibition is 91%.

Q: And the inhibition (off-target kinases [7]; read-out: % Inhibition 2)?
A: Its inhibition is 86%.

Q: What about the inhibition (off-target kinases [7]; read-out: % Inhibition Avg) of the same compound?
A: Its inhibition is 89%.

Q: What about the inhibition (off-target kinases [8]; read-out: % Inhibition 1) of the same compound?
A: The inhibition was 25%.

Q: What about the inhibition (off-target kinases [8]; read-out: % Inhibition 2) of the same compound?
A: Its inhibition is 25%.

Q: And the inhibition (off-target kinases [8]; read-out: % Inhibition Avg)?
A: The inhibition was 25%.
